Measurements reported in US20240325544A1, “CATIONIC LIPID FOR COVALENT MODIFICATION OF PEPTIDES” (PharmalN Corporation, priority 2023, published 2024).
Bridge positions count the residues as written; N and C are the ends. Square brackets hold non-standard residues; d marks the D form. Peptide text beside a SMILES is read from it. * marks the point of attachment. Palmitoyl = CCCCCCCCCCCCCCCC(=O)*; Dab = NCC[C@H](N)C(=O)O; Dap = NC[C@H](N)C(=O)O; AEEA = NCCOCCOCC(=O)O

What was measured:
[1] = Plasma concentration of respective natriuretic peptide by ELISA after SC bolus in CD-1 mice (pharmacokinetics, Table 3); conditions: male, CD-1, mouse, in vivo, sc, 1 mg/kg
Outline: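 Peptides given SC in sterile water; retro-orbital blood at 2 and 6 h post-dose (two bleeds per mouse), K2EDTA plasma. Plasma cGMP by commercial immunoassay kit; ANP, BNP or CNP plasma levels by peptide-specific ELISA.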

cGMP = test: Plasma cGMP profile after single SC injection in CD-1 mice (FIG. 1B); type: in vivo; conditions: 1.0 mg/kg SC, 0-24 hours
Description: The animals were kept in PharmaIN animal facility with controlled temperature (68-74° F.) and humidity (30-60%), and a 12-hour light/dark cycle. […] Lead buffer was used to formulate or dissolve all test articles on the day of administration. Blood sampling: Blood samples were collected via retro-orbital bleed at several timepoints (0, 0.5, 1, 2, 4, 6, 8, and 24 hours) and processed in K2EDTA tubes (2000× g; 15 min, 4° C. within 30 minutes after collection) to obtain plasma. Plasma samples were aliquoted and stored at −80° C. until analysis. Biochemical analysis: For pharmacokinetic study, plasma aliquots were thawed at 4° C. then analyzed using a commercially available CNP ELISA kit from Phoenix Pharmaceuticals (cat #EKE-012-03), which detects the cyclic structure of CNP and all CNP derivatives with the same level of reactivity to the ELISA kit. […] For pharmacodynamic or bioactivity study of cGMP, plasma aliquots were thawed at 4° C. then analyzed using a commercially available cGMP kit from Abcam (ab133052, Waltham, MA).

C57BL/6J mice = test: Survival in LPS induced sepsis model (FIG. 2A); type: in vivo; conditions: LPS 15 mg/kg IP; 0.3 mg/kg (0.1 μmol/kg) SC once, survival to 56 hours
Description: FIGS. 2A-2B: Single and repeat administration of cationic alkyl modified C-type Natriuretic Peptides increases probability of survival in LPS induced Sepsis and ALI animal models. FIG. 2A) Sepsis induction: Male C57BL/6J mice (n=10 per group; 3 groups) were injected IP with LPS (15 mg/kg) and treated with various test articles, including cationic alkyl modified CNPs (SEQ ID NO: 31 and 29; 0.3 mg/kg (0.1 μmol/kg) SC). The control group received LPS treatment without any test article. The test articles were administered immediately after LPS administration (marked with vertical dotted lines). Survival was monitored every 2 hours from 8-56 hours, after which the surviving mice were euthanized under isoflurane anesthesia. […] Survival was monitored every 8 hours for 72 hours, after which the surviving mice were euthanized under isoflurane anesthesia. […]
Animal care and treatment: Male C57BL/6J mice (6 weeks-old) were purchased from Kyudo (Saga, Japan) and maintained under a 12-hour light/12-hour dark cycle with free access to water and standard mouse diet (MF diet, Oriental Yeast Co., Ltd. Tokyo, Japan). […] Survival was monitored every 2 hours from 8-56 hours, after which the mice were euthanized under isoflurane anesthesia. […] Survival was monitored every 8 hours for 72 hours, after which the mice were euthanized under isoflurane anesthesia. […]

Sprague Dawley rats [2] = conditions: rat, in vivo, sc
Description: (§1) Animal care and treatment: Male Sprague Dawley rats aged 8 to 10 weeks (Charles River, Hollister, CA) were housed in groups of two (n=3/group) in disposable polypropylene cages with rodent cob bedding at the PharmaIN animal facility. Animals had ad libitum access to food (LabDiet Pico Rodent #5053; Animal Specialties, Woodburn, OR) and water. Temperature (68-74° F.) and humidity (30-60%) were maintained within a controlled range, and a 12-hour light/dark cycle was used. […] Animals were monitored closely during the first 4 hours following injection, then hourly throughout the rest of the day for any signs of swelling or discoloration (dilatory side effect), lethargy (side effect), ataxia (ataxia is used as a marker of toxicity). Rats were allowed a 1-week wash-out period between bolus doses. Following final observations, animals were humanely euthanized through CO2 asphyxiation.

Sprague Dawley rats [3] = test: Dose-range finding of cationic alkyl modified CNP, subcutaneous bolus in rats (Table 2)
Description: as §1

SMILES | level at 2 h [1] | level at 6 h [1] | Plasma cGMP levels over time compared to native CNP (cGMP) | Survival (C57BL/6J mice) | Swelling and/or Discoloration in n = 3 (Sprague Dawley rats [2]) | Ataxia** in n = 3 (Sprague Dawley rats [3]; up to 10 mg/kg) | Lethargy* in n = 3 (Sprague Dawley rats [3]; up to 10 mg/kg) | Ataxia** in n = 3 (Sprague Dawley rats [3]; value in parentheses) | Lethargy* in n = 3 (Sprague Dawley rats [3]; value in parentheses)
CCCCCCCCCCCCCCCC(=O)NCCOCCOCC(=O)NCCOCCOCC(=O)NCCOCCOCC(=O)N[C@@H](CCN)C(=O)N[C@@H](CCN)C(=O)NCC(=O)N[C@@H](CC(C)C)C(=O)N[C@@H](CO)C(=O)N[C@@H](CCCCN)C(=O)NCC(=O)N[C@H]1CSSC[C@@H](C(=O)O)NC(=O)CNC(=O)[C@H](CC(C)C)NC(=O)CNC(=O)[C@H](CO)NC(=O)[C@H](CCC(N)=O)NC(=O)[C@H](CO)NC(=O)CNC(=O)[C@H]([C@@H](C)CC)NC(=O)[C@H](CCCNC(=N)N)NC(=O)[C@H](CC(=O)O)NC(=O)[C@H](CC(C)C)NC(=O)[C@H](CCCCN)NC(=O)[C@H](CC(C)C)NC(=O)CNC(=O)[C@H](Cc2ccccc2)NC1=O [SEQ ID NO: 29] ({Palmitoyl-AEEA-AEEA-AEEA}-[Dab][Dab]GLSKGCFGLKLDRIGSQSGLGC-OH; disulfide 8-24; C-terminus assumed) | 0.018 µg/mL | 0.00893 µg/mL | sustained elevation of cGMP levels | effective in improving survival | (3.1) μmol/kg | >10 mg/kg | ≥9.5 mg/kg | (3.3) μmol/kg | (3.1) μmol/kg
CCCCCCCCCCCCCCCC(=O)NCCOCCOCC(=O)NCCOCCOCC(=O)NCCOCCOCC(=O)N[C@@H](CN)C(=O)N[C@@H](CN)C(=O)NCC(=O)N[C@@H](CC(C)C)C(=O)N[C@@H](CO)C(=O)N[C@@H](CCCCN)C(=O)NCC(=O)N[C@H]1CSSC[C@@H](C(=O)O)NC(=O)CNC(=O)[C@H](CC(C)C)NC(=O)CNC(=O)[C@H](CO)NC(=O)[C@H](CCC(N)=O)NC(=O)[C@H](CO)NC(=O)CNC(=O)[C@H]([C@@H](C)CC)NC(=O)[C@H](CCCNC(=N)N)NC(=O)[C@H](CC(=O)O)NC(=O)[C@H](CC(C)C)NC(=O)[C@H](CCCCN)NC(=O)[C@H](CC(C)C)NC(=O)CNC(=O)[C@H](Cc2ccccc2)NC1=O [SEQ ID NO: 31] ({Palmitoyl-AEEA-AEEA-AEEA}-[Dap][Dap]GLSKGCFGLKLDRIGSQSGLGC-OH; disulfide 8-24; C-terminus assumed) | 0.0768 µg/mL | 0.0148 µg/mL | sustained elevation of cGMP levels | effective in improving survival | (3.3) μmol/kg | >10 mg/kg | >10 mg/kg | (3.3) μmol/kg | (3.3) μmol/kg
